Data from patent publication EP0373543A2, “Diagnostic media and assay for detecting fungicide resistance” (BASF Corporation, priority 1988, dated 1990).

Columns and labels:
Botrytis cinerea [1] = assay: Color change diameter on bromothymol blue diagnostic media at pH 7.5-8.5 (Example 3); assay type: cell-based; set-up: key: T = only slight color change
Description: Diagnostic media was prepared substantially as described above in Preparation Example 1 except that bromothymol blue rather than bromcresol purple and only 4 g of dextrose was used per liter and the pH adjusted to 7.5, 8.0 and 8.5. These media were then inoculated with spores of either Botrytis cinerea or Rhizopus nigricans isolates substantially as previously described. The inoculated media was then incubated for 18 hours at room temperature and the results recorded below in Table III.

Botrytis cinerea [2] = assay: Color change diameter on bromcresol purple media containing vinclozolin (Example 2); assay type: cell-based; settings: resistant isolates of Botrytis cinerea only; water dextrose media; after 4 days

## C=CC1(C)OC(=O)N(c2cc(Cl)cc(Cl)c2)C1=O (stereo not shown) [vinclozolin]
Botrytis cinerea [1]; isolate BC B sens., pH 7.5, 18 hours
  DIAMETER OF COLOR CHANGE: 0 mm
Botrytis cinerea [1]; isolate BC B sens., pH 8.0, 18 hours
  DIAMETER OF COLOR CHANGE: 0 mm
Botrytis cinerea [1]; isolate BC B sens., pH 8.5, 18 hours
  DIAMETER OF COLOR CHANGE: 0 mm
Botrytis cinerea [1]; isolate BC-1 res., pH 7.5, 18 hours
  DIAMETER OF COLOR CHANGE: 12 mm
Botrytis cinerea [1]; isolate BC-1 res., pH 8.0, 18 hours
  DIAMETER OF COLOR CHANGE: 6 mm
Botrytis cinerea [1]; isolate BC-1 res., pH 8.5, 18 hours
  DIAMETER OF COLOR CHANGE: 0 mm
Botrytis cinerea [1]; isolate BC-2 res., pH 7.5, 18 hours
  DIAMETER OF COLOR CHANGE: 12 mm
Botrytis cinerea [1]; isolate BC-2 res., pH 8.0, 18 hours
  DIAMETER OF COLOR CHANGE: 6 mm
Botrytis cinerea [1]; isolate BC-2 res., pH 8.5, 18 hours
  DIAMETER OF COLOR CHANGE: T
Botrytis cinerea [1]; isolate BC-3 res., pH 7.5, 18 hours
  DIAMETER OF COLOR CHANGE: 18 mm
Botrytis cinerea [1]; isolate BC-3 res., pH 8.0, 18 hours
  DIAMETER OF COLOR CHANGE: 12 mm
Botrytis cinerea [1]; isolate BC-3 res., pH 8.5, 18 hours
  DIAMETER OF COLOR CHANGE: 12 mm
Botrytis cinerea [1]; isolate BC-4 res., pH 7.5, 18 hours
  DIAMETER OF COLOR CHANGE: 12 mm
Botrytis cinerea [1]; isolate BC-4 res., pH 8.0, 18 hours
  DIAMETER OF COLOR CHANGE: 12 mm
Botrytis cinerea [1]; isolate BC-4 res., pH 8.5, 18 hours
  DIAMETER OF COLOR CHANGE: 12 mm
Botrytis cinerea [1]; isolate BC-5 res., pH 7.5, 18 hours
  DIAMETER OF COLOR CHANGE: 6 mm
Botrytis cinerea [1]; isolate BC-5 res., pH 8.0, 18 hours
  DIAMETER OF COLOR CHANGE: 3 mm
Botrytis cinerea [1]; isolate BC-5 res., pH 8.5, 18 hours
  DIAMETER OF COLOR CHANGE: 6 mm
Botrytis cinerea [1]; isolate BC-6 resistant, pH 7.5, 18 hours
  DIAMETER OF COLOR CHANGE: 6 mm
Botrytis cinerea [1]; isolate BC-6 resistant, pH 8.0, 18 hours
  DIAMETER OF COLOR CHANGE: 3 mm
Botrytis cinerea [1]; isolate BC-6 resistant, pH 8.5, 18 hours
  DIAMETER OF COLOR CHANGE: 6 mm
Botrytis cinerea [1]; isolate BC-A sensitive, pH 7.5, 18 hours
  DIAMETER OF COLOR CHANGE: 0 mm
Botrytis cinerea [1]; isolate BC-A sensitive, pH 8.0, 18 hours
  DIAMETER OF COLOR CHANGE: 0 mm
Botrytis cinerea [1]; isolate BC-A sensitive, pH 8.5, 18 hours
  DIAMETER OF COLOR CHANGE: 0 mm
Botrytis cinerea [1]; isolate BC-C sens., pH 7.5, 18 hours
  DIAMETER OF COLOR CHANGE: T
Botrytis cinerea [1]; isolate BC-C sens., pH 8.0, 18 hours
  DIAMETER OF COLOR CHANGE: 0 mm
Botrytis cinerea [1]; isolate BC-C sens., pH 8.5, 18 hours
  DIAMETER OF COLOR CHANGE: 0 mm
Botrytis cinerea [1]; isolate BC-D sens., pH 7.5, 18 hours
  DIAMETER OF COLOR CHANGE: T
Botrytis cinerea [1]; isolate BC-D sens., pH 8.0, 18 hours
  DIAMETER OF COLOR CHANGE: 0 mm
Botrytis cinerea [1]; isolate BC-D sens., pH 8.5, 18 hours
  DIAMETER OF COLOR CHANGE: 0 mm
Botrytis cinerea [2]
  diameter color reaction: 25 mm
